In EP0430991B1, “REAGENT FOR USE IN LD-1 ASSAY” (BOEHRINGER MANNHEIM CORPORATION, priority 1988, dated 1990):
Structures can show the parent of a compound that is named as a salt. Where two headings read alike, the source gives them in different places.

Experiments:
[1] = target: lactate dehydrogenase isoenzyme LD-1, H(4) (Homo sapiens, UniProt P07195); assay: biochemical; details: for LD-1 ISOENZYME REAGENT (Recovery): Lithium L-Lactate 90 mM, pH 9.6; for activity at 240000 µM: R1: guanadine thiocyanate 240 mM, Lithium L-Lactate 90mM, Tris 112.6 mM, pH 9.5, 37 degrees C
Protocol: (§1) A. Materials: • 1. Reagent I. contains Lithium L-Lactate (90mM), guanadine thiocyanate (240 mM), Tris buffer (112.6 mM) at pH 9.5. • 2. Reagent II. contains Na(2)SO(4) (40 mM) and NAD (53.76 mM). Reaction mixture is a combination of 2.0 ml of R-1, 0.5 ml of R-2 which has a final reaction pH of 8.9 • 3. LD isoenzymes. Pure LD-1, LD-2, LD-3 and LD-5 individual isoenzymes were obtained from Aalto of Escondido, CA. Patient serum samples were obtained from a local hospital. B. Procedures Using Automated Analyzer Tests were performed on a Boehringer Mannheim/Hitachi 705 analyzer. The analyzer was given the following parameters: Assay Code: Rate - 20-26 (equivalent to 84.62 seconds to 198.70 seconds) Sample Volume: 12 µl R1 Volume: 400 µl R2 Volume: 100 µl Wavelength 1: 376 nm Wavelength 2: 340 nm Temperature: 37 degrees C. Factor: -10470 C. Manual Procedure Instrument: Spectrophotometer Temperature: 37 degrees C. Wavelength: 340 nm 1. Zero spectrophotometer with distilled or deionized water (DI HOH) 2. Pipette the following reagents in a cuvette:
(§2) 3. Mix and equilibrate sample to 37 degrees C. 4. Pipette and add 0.5 ml of R2 into sample test tube. Mix and measure optical density change at 340 nm for about 6 minutes. Calculate A/min. from 2 to 4 minutes. This is A/min for the sample. 5. Repeat steps 2 to 4 for the blank using 0.060 ml DI HOH as sample. This is A/min. for the blank. 6. Calculate for U/L (U/L = units of LDH activity per liter) U/L = (A/min Sample - A/min blank) x 1000 x 2.56 6.22 x light path x 0.06 [formula] D. Protocol for the Electrophoretic Analysis • 1. About 630 to 1,000 µl of individual LD-1, LD-2, LD-3, LD-4, LD-5 and abnormal patient serum samples were used in the electrophoretic analysis. • 2. 12 µl sample was added to […] R1 and incubated for 4 minutes at 37 degrees C to inhibit LD-2 to LD-5 to achieve an inhibited sample. • 3. Another 12 µl sample was added to 400 ul of Tris buffer (112.6 mM, pH at 8.9-9.0) and incubated for 4 minutes at 37 degrees C to achieve a control sample. • 4. Both the inhibited and control samples were applied to the Beckman Paragon Gel and the electrophoresis was run according to the Beckman procedure specified for the gel using a Beckman Paragon Electrophoresis instrument from Beckman Instrument. E. Method for Comparison Sixty-eight patient samples with LD-1 activity from 30 to 800 U/L were tested to compare the selectivity of R1 with the immunochemical separation method Roche's Isomune LD-1 reagent was employed for the immunochemical separation. F. Experimental Results 1. LD isoenzymes were tested using the Automated Analyzer procedure described above. […] LD-1 isoenzyme was tested at several concentrations. […]
(§3) A. Materials • 1. Reagent I: contains Lithium L-Lactate (90 mM), guanidine HCl (240 mM), sodium thiocyanate (240 mM) Tris buffer (119 mM) and Na(2)Co(3) (12.5 mM) at pH 9.6. • 2. Reagent II: contains Na(2)SO(4) (40 mM) and NAD (53.76 mM). Reaction mixture is a combination of 2.0 ml of R-1, 0.5 ml of R-2 which has final reaction pH at 8.9. • 3. LD isoenzymes: Same as described in Example 1. B. Procedures using Automated Analyzer Same as described in Example 1. C. Manual Procedure Same as described in Example 1. […]
(§4) A. Materials • 1. Reagent I: contains Lithium L-Lactate (90 mM), guanidine-HCL Na(2)Co(3) (12.5mM), Tris buffer (119 mM) at pH 9.6. • 2. Reagent II: contains Na(2)SO(4) (40 mM) and NAD (53.76 Mm). Reaction mixture is a combination of 2.0 ml of R-1, 0.5 ml of R-2 which has final reaction reaction pH at 8.9. • 3. LD isoenzymes: pure LD-1, LD-2, LD-3 and LD-5 individual isoenzymes are obtained from Aalto, Escondido, CA. Patient serum samples are obtained from a local hospital. B. Procedures using Automated Analyzer Same as described in Example 1. C. Manual Procedure Same as described in Example 1. […] Table
(§5) A. Materials • 1. Reagent I: contains Lithium L-Lactate (90 mM), NaSCN (240 mM) Na(2)Co(3) (12.5 mM), Tris buffer (119 mM) at pH 9.6. • 2.

[2] = target: T1, lactate dehydrogenase isoenzyme LD-2, H(3)M (Homo sapiens, UniProt P00338+P07195); assay: LD isoenzyme inactivation, automated analyzer rate assay (lactate/NAD, 340 nm); assay type: biochemical; details: for LD-1 ISOENZYME REAGENT (Recovery): Lithium L-Lactate 90 mM, pH 9.6
T1 construct: purchased Aalto, Escondido, CA
Protocol: as §1, §2, §3, §4, §5

[3] = target: T2, lactate dehydrogenase isoenzyme LD-3, H(2)M(2) (Homo sapiens, UniProt P00338+P07195); assay: as above; assay type: biochemical; details: Lithium L-Lactate 90 mM, pH 9.6
T2 construct: purchased Aalto, Escondido, CA
Protocol: as §1, §2, §3, §4, §5

[4] = target: lactate dehydrogenase isoenzyme LD-5, M(4) (Homo sapiens, UniProt P00338); assay: as above; assay type: biochemical; details: for LD-1 ISOENZYME REAGENT (Recovery): Lithium L-Lactate 90 mM, pH 9.6
Protocol: as §1, §2, §3, §4, §5

[5] = tested on: LD-2,3,4,5 (sample contains LD(2), LD(3), LD(4), and LD(5) isoenzymes with 43% of LD(4)); assay: as above; assay type: biochemical, human; details: Lithium L-Lactate 90 mM, pH 9.6
Protocol: A. Materials: • 1. […] LD isoenzymes. […] Patient serum samples were obtained from a local hospital. […] Factor: -10470 C. Manual Procedure Instrument: Spectrophotometer Temperature: 37 degrees C. Wavelength: 340 nm 1. […] Pipette the following reagents in a cuvette:
3. Mix and equilibrate sample to 37 degrees C. 4. […] Calculate A/min. from 2 to 4 minutes. This is A/min for the sample. 5. […] This is A/min. for the blank. 6. […] F. Experimental Results 1. […] LD-1 isoenzyme was tested at several concentrations. […]
A. Materials • 1. […] LD isoenzymes: Same as described in Example 1. […] C. Manual Procedure Same as described in Example 1. […]
A. Materials • 1. […] Patient serum samples are obtained from a local hospital. […] C. Manual Procedure Same as described in Example 1. […] Table

[6] = target: lactate dehydrogenase isoenzyme LD-4, HM(3) (Homo sapiens, UniProt P00338+P07195); assay: as above; assay type: biochemical; details: R1: guanadine thiocyanate 240 mM, Lithium L-Lactate 90mM, Tris 112.6 mM, pH 9.5; 37 degrees C; read-out: Activity After R1 Treatment (% of Total LDH Reagent)
Protocol: as §1
3. Mix and equilibrate sample to 37 degrees C. 4. Pipette and add 0.5 ml of R2 into sample test tube. Mix and measure optical density change at 340 nm for about 6 minutes. Calculate A/min. from 2 to 4 minutes. This is A/min for the sample. 5. Repeat steps 2 to 4 for the blank using 0.060 ml DI HOH as sample. This is A/min. for the blank. 6. […]

[7] = Reagent I: guanidine-HCL (concentration not given), no thiocyanate
[8] = R1: guanadine thiocyanate 240 mM, Lithium L-Lactate 90mM, Tris 112.6 mM, pH 9.5, 37 degrees C, read-out: Activity After R1 Treatment (% of Total LDH Reagent)
[9] = Reagent I: NaSCN 240 mM, no guanidine

In the case of `N=C(N)N` [GUANIDINE HCL, guanidine HCl], the “LD-1 ISOENZYME REAGENT (Recovery)” value ([1]; LD-1 sample 1X, Reagent I: guanidine-HCL (concentration not given), no thiocyanate) is reported as 202 (110 %), the “LD-1 ISOENZYME REAGENT (Recovery)” value ([1]; LD-1 sample 2X, Reagent I: guanidine-HCL (concentration not given), no thiocyanate) is reported as 394 (107 %) and the “LD-1 ISOENZYME REAGENT (Recovery)” value ([1]; LD-1 sample 4X, Reagent I: guanidine-HCL (concentration not given), no thiocyanate) is reported as 759 (107 %). For the same molecule, the “LD-1 ISOENZYME REAGENT (Recovery)” value ([1]; LD-1 sample 6X, Reagent I: guanidine-HCL (concentration not given), no thiocyanate) was 1123 (106 %), the “LD-1 ISOENZYME REAGENT (Recovery)” value [2, 7] was 826 (106 %) and the “LD-1 ISOENZYME REAGENT (Recovery)” value [3, 7] was 1323 (102 %). The “LD-1 ISOENZYME REAGENT (Recovery)” value [4, 7] was 159 ( 9.50%) and the “LD-1 ISOENZYME REAGENT (Recovery)” value [5, 7] was 1102 ( 81.2 %).
`N=C(N)N` [guanadine thiocyanate] showed an activity at 240000 µM ([1]; pH 9.5, read-out: Activity After R1 Treatment (% of Total LDH Reagent), LD-1 sample 1x) of 98%, an activity at 240000 µM ([1]; pH 9.5, read-out: Activity After R1 Treatment (% of Total LDH Reagent), LD-1 sample 2x) of 100% and an activity at 240000 µM ([1]; pH 9.5, read-out: Activity After R1 Treatment (% of Total LDH Reagent), LD-1 sample 4x) of 100%. The activity at 240000 µM ([1]; pH 9.5, read-out: Activity After R1 Treatment (% of Total LDH Reagent), LD-1 sample 6x) was 102%, the activity at 240000 µM [2, 8] was 1.1% and the activity at 240000 µM [4, 8] was 0%. It also gave an activity at 240000 µM [6] of 0%.
In the case of sodium thiocyanate [NaSCN], the “LD-1 ISOENZYME REAGENT (Recovery)” value ([1]; LD-1 sample 1X, Reagent I: NaSCN 240 mM, no guanidine) is reported as 252 (138 %), the “LD-1 ISOENZYME REAGENT (Recovery)” value ([1]; LD-1 sample 2X, Reagent I: NaSCN 240 mM, no guanidine) is reported as 499 (136 %) and the “LD-1 ISOENZYME REAGENT (Recovery)” value ([1]; LD-1 sample 4X, Reagent I: NaSCN 240 mM, no guanidine) is reported as 964 (134 %). For the same molecule, the “LD-1 ISOENZYME REAGENT (Recovery)” value ([1]; LD-1 sample 6X, Reagent I: NaSCN 240 mM, no guanidine) was 1421 (134 %), the “LD-1 ISOENZYME REAGENT (Recovery)” value [2, 9] was 905 (116 %) and the “LD-1 ISOENZYME REAGENT (Recovery)” value [3, 9] was 1093 ( 85 %). For the same molecule, the “LD-1 ISOENZYME REAGENT (Recovery)” value [4, 9] was 44 ( 2.6%) and the “LD-1 ISOENZYME REAGENT (Recovery)” value [5, 9] was 725 ( 53 %).
